Legend:
DsaD/E complex [1] = assay: Analytical-scale Cα/Cβ H/D exchange with purified DsaD and DsaE; assay type: biochemical, Streptomyces scopuliridis; details: 10 mM substrate, 5 μM DsaD, 50 μM DsaE (10:1), 37° C., 8 h
Description: FIGS. 3A-3C. Optimization of H/D exchange reactions and evaluation of the substrate scope. FIG. 3A. Optimization of Cβ-deuteration by increasing equivalents of partner protein DsaE. FIG. 3B. Evaluation of substrate scope of dual-protein-catalyzed Cα/Cβ deuteration under optimized conditions. FIG. 3C. UV-visible spectroscopy used to evaluate non-native substrate binding to DsaD. Reaction conditions: 10 mM amino acid substrate, 50 μM DsaE, 5 μM DsaD (10:1), 50 mM sodium phosphate (pD 8.4), 0.1 mM PLP, D2O, 37° C., 8 h. Reactions performed in duplicate, and percentage isotope incorporation is reported as the average of the replicates.
General procedure analytical scale deuteration reactions: α/β deuteration reactions were performed as follows. A 1 mL Eppendorf tube was charged with amino acid (10-20 mM final concentration), Na3PO4 buffer pD 8.4 (50 mM final concentration), PLP (100 μM final concentration), purified enzymes or appropriate lysate and D2O and to the appropriate final volume (typically 50 μL). Reactions were carried out at 37° C. for 8 h and quenched by the addition of 3 volumes of acetonitrile. Precipitated biomolecules were pelleted by centrifugation (16,000×g, 10 min) and samples were processed as described below.
(§1) Marfey's derivatization of analytical scale reactions: Derivatization of the resulting analytical scale product mixture (to increase overall signal and enable reverse phase chromatographic analysis) was achieved by treatment with Marfey's reagent^2 (1-fluoro-2-4-dinitrophenyl-5-L-alanine amide, L-FDAA) using the following protocol. 25 μL of quenched reaction mix (final amine concentration, 1.6 mM) was added to an Eppendorf tube with 50 μL of 15 mM NaHCO3 (final concentration, 5 mM) and 75 μL of 5 mM L-FDAA (final concentration, 2.5 mM). Derivatization reactions were carried out for 10-12 h before quenching with 150 μL of 60 mM HCl dissolved in acetonitrile. Final reaction analysis was carried out by UPLC-DAD-MS and quantitation as described below.
(§2) Quantitation of deuteration in analytical scale reactions: Deuteration reactions were analyzed by UPLC-DAD-MS with single ion recording (SIR) channels set to record a spectrum with the appropriate isotopic mass in positive mode. The area under the curve of recorded SIR peaks was obtained and normalized to account for natural isotopic abundance distributions (e.g. ^13C, ^15N, ^2H, ^34S, etc). Percent deuterium incorporation was calculated by the formula below. These measurements were carried out in an iterative fashion to measure Cα deuteration and Cβ deuteration.

DsaD/E system = assay: Two-step Cα/Cβ deuteration then Cα deuterium washout with DsaD in H2O; assay type: biochemical, Streptomyces scopuliridis; details: after Cα washout with DsaD in water
Description: (§3) General procedure for milligram-scale biocatalytic deuteration: A 4-dram scintillation vial was charged with amino acid (10-20 mM final concentration), Na3PO4 buffer pD 8.4 (50 mM final concentration), PLP (100 μM final concentration), DsaD clarified cell lysate (2.5% v/v), DsaE clarified cell lysate (if applicable) (2.5% v/v), and D2O (or dH2O) to the appropriate final volume. The reaction vessel was placed in an incubator at 37° C. for 16 h. Reaction progress was monitored by UPLC-MS. After reaction completion, the reaction mixture was quenched with an equivalent volume of acetone and centrifuged (4,000 rpm, 10 min) to remove denatured protein. Supernatant was transferred to a clean beaker, the decanted supernatant was concentrated to remove acetone by rotary evaporation and loaded onto a preparative reverse-phase C18 column pre-equilibrated with water. Purification was performed via gradient elution on an Isolera One Flash Purification system (Biotage). Fractions bearing product (confirmed by UPLC-MS sampling of fraction tubes) were pooled and dried by rotary evaporation. The product was then resuspended in a minimal quantity of water, transferred to a pre-weighed 20 mL vial, frozen, and lyophilized.
An initial reaction was performed with DsaD and DsaE to produce Cα,Cβ-deuterated L-Leu-2,3,3-d3 (25). Following reaction quenching with acetone, centrifugation to remove protein products, and removal of acetone and D2O via rotary evaporation, the dry crude product mixture was subjected to standard reaction conditions with DsaD in water. This reaction led to washout of the Cα deuterium, providing exclusively Cβ-deuterated L-Leu-3,3-d2 (44) with high levels of deuterium incorporation at Cβ (FIG. 5, 86% D incorporation and 98% ee). The site of H/D exchange in these reactions is dictated by the presence or absence of DsaE from the reaction conditions, enabling control of amino acid deuteration patterns.
We performed Cα/Cβ deuteration on a panel of amino acids, quenched the reactions and resubjected the crude product to Cα deuterium washout with DsaD in H2O. […]

DsaD = DsaD (Streptomyces scopuliridis, UniProt A0A0D5CCB2); assay: UV-vis spectroscopy of amino acid binding to DsaD; details: 20 μM DsaD, pH 8.0, 25° C.
Description: UV-Vis Spectroscopy: Data were collected between 600 and 300 nm on a UV-2600 Shimadzu spectrophotometer (Shimadzu, Kyoto, Japan) with a semi-micro quartz cuvette (Starna Cells, Atascadero, California, USA) at 25° C. DsaD stock solutions were diluted to 20 μM in 50 mM sodium phosphate pH 8.0. For observation of substrate binding, amino acids were added at concentrations ranging from 2.5-10 mM. Spectra from 600-300 nm were collected after a 2-minute incubation period. Amino acid stocks were prepared as 100 mM stocks in deionized water.

DsaD/E complex [2] = assay: Preparative-scale Cα/Cβ-deuteration with DsaD and DsaE clarified lysates in D2O; assay type: biochemical, Streptomyces scopuliridis
Description: FIG. 5. ^1H NMR analysis of site-selective deuteration of L-Leu. Reaction conditions: 20 mM L-Leu 2.5% v/v DsaD clarified lysate, 2.5% v/v DsaE clarified lysate (when needed), 50 mM sodium phosphate (pD 8.4), 0.1 mM PLP, D2O (99.9% D).
FIG. 8. Preparative-scale and site-selective deuteration of amino acids. Conditions: 10-20 mM amino acid, 2.5% v/v DsaD clarified lysate, 2.5% v/v DsaE clarified lysate, 50 mM sodium phosphate (pD 8.4), 0.1 mM PLP, D2O (99.9%).
as §3

DsaD/DsaE complex = DsaD/DsaE complex (Streptomyces scopuliridis, UniProt A0A0D5CCB2); assay: Steady-state kinetic analysis of H/D exchange of L-Ile by DsaD with partner protein DsaE; assay type: biochemical
Description: (§4) FIGS. 2A-2E. Steady-state kinetic analysis of H/D exchange by the Ile epimerization system. FIG. 2A. Steady-state kinetic analysis describing Cβ-deuteration^a of L-Ile under varied equivalents of partner enzyme DsaE. FIG. 2B. Steady-state kinetic analysis of Cβ-deuteration rates^a at a constant 1 mM L-Ile, measured against increasing equivalents of DsaE. FIG. 2C. Steady-state kinetic analysis of Cα-deuteration^a of L-Ile in the presence and absence of partner protein DsaE. FIG. 2D. Proposed mechanism of selective deuterium incorporation at Cα and Cβ catalyzed by dual protein catalysis. FIG. 2E. UV-visible spectrum of DsaD in the absence and presence of L-Ile.^a Measurement of initial rates was performed in duplicate at 24° C. Conditions: 0.1-10 mM L-Ile, 3 μM DsaD, 50 mM sodium phosphate (pD 8.4), and 0.1 mM PLP in D2O (99.9%). Proteins were exchanged into a 50 mM sodium phosphate-D2O (pD 8.4) solution prior to reaction initiation to minimize proton contamination (<1% H2O). Following quench with MeCN, crude reaction products were subjected to functionalization with Marfey's reagent (L-FDAA) to enable analysis by reverse-phase chromatography and quantification of isotope incorporation by mass spectrometry.
as §1, §2
Kinetic analysis of biocatalytic L-Ile deuteration: Initial rates of α- or β-deuteration were obtained by means of end-point assay using the quantitation protocol for analytical scale reactions as described above. All reagents were prepared in D2O (99.9% D) and protein stocks were dialyzed (3 exchanges over 3 h at 4° C.) into 50 mM sodium phosphate buffer dissolved in D2O (pD 8.4) using a slide-a-lyzer device with a 3,000 Da cutoff. Reactions were performed at 25° C. in 1 mL Eppendorf tubes. Michaelis constants (KM) for α- and β-deuteration of L-Ile were determined using the concentration range of 0.1-10 mM L-Ile using 3 μM DsaD. Partner protein (DsaE) concentrations were consistent within each experiment and separate experiments were performed using varied equivalents of partner protein (0-50 equiv). Initial velocities were measures in duplicate or triplicate for at least 6 different substrate concentrations for each set of conditions tested. Measurements of the impact of partner protein (DsaE) concentration on the initial rate of β-deuteration were carried out using 1 mM L-Ile, 3 μM DsaD and varying DsaE concentrations between 3 μM-600 μM (1-200 equiv). Under the minimal proton contamination conditions of this assay (99.9% D2O), Cα and Cβ deuteration are assumed to have occurred without back transfer to proton. The data were fit using the Michaelis-Menten equation implemented in Prism.

[3] = substrate: CC[C@H](C)[C@H](N)C(=O)O; assay: as above; assay type: biochemical, Streptomyces scopuliridis; details: pH 8.4
Description: as §4, §1
as §2, with “These measurements were carried out in an iterative fashion to measure Cα deuteration and Cβ deuteration.” left out
Kinetic analysis of biocatalytic L-Ile deuteration: Initial rates of α- or β-deuteration were obtained by means of end-point assay using the quantitation protocol for analytical scale reactions as described above. […] Michaelis constants (KM) for α- and β-deuteration of L-Ile were determined using the concentration range of 0.1-10 mM L-Ile using 3 μM DsaD. […]

[4] = DsaD and DsaE clarified lysates, D2O, 5% 1H-water
[5] = lower substrate loading (10 mM)

DsaD/DsaE complex, sequence (A0A0D5CBB6 entry or part of it, one chain of several): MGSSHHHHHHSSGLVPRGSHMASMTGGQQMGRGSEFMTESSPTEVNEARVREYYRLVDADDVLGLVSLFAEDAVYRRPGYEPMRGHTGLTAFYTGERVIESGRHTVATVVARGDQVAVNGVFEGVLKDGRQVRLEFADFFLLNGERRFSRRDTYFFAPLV

N[C@@H](CO)C(=O)O [Ser]
Cα and Cβ D-incorporation (DsaD/E complex [1]): did not undergo any deuteration

[2H]C([2H])(C(C)C)[C@H](N)C(=O)O [L-Leu-3,3-d2]
D incorporation at Cβ (DsaD/E system): 86%

CSCC[C@H](N)C(=O)O [Met, methionine]
D-incorporation at Cα (DsaD/E complex [1]): high levels of exchange
D-incorporation at Cβ (DsaD/E complex [1]): moderate levels of D-incorporation

CC[C@H](C)[C@H](N)C(=O)OC [methyl ester of Ile]
Cα and Cβ D-incorporation (DsaD/E complex [1]): Neither of these substrates underwent deuteration

C[C@@H](O)[C@H](N)C(=O)O [Thr, threonine]
substrate binding to DsaD by UV-vis (DsaD): no binding was observed
Cα and Cβ D-incorporation (DsaD/E complex [1]): did not undergo any deuteration

COc1ccc(C[C@H](N)C(=O)O)cc1 [compound 34, (OMe)-L-Tyr]
D-incorporation at Cα (DsaD/E complex [1]): 99%
D-incorporation at Cβ (DsaD/E complex [1]): 74%

[2H]C([2H])(C(C)C)[C@]([2H])(N)C(=O)O [L-Leu-2,3,3-d3]
deuterium incorporation at Cα (DsaD/E complex [2]; [4]): 95%
deuterium incorporation at Cβ (DsaD/E complex [2]; [4]): 86%

CO[C@H](C)[C@H](N)C(=O)O [compound 30, L-(OMe)-Thr]
substrate binding to DsaD by UV-vis (DsaD): enables productive binding
D-incorporation at Cα (DsaD/E complex [1]): high levels of deuteration
D-incorporation at Cβ (DsaD/E complex [1]): moderate deuterium incorporation and scrambling of configuration

CSC[C@H](N)C(=O)O [S-Me-Cys, S-methylcysteine]
D-incorporation at Cα (DsaD/E complex [1]): high levels of exchange
D-incorporation at Cβ (DsaD/E complex [1]): moderate levels of D-incorporation

CC(C)CCN [isopentylamine]
Cα and Cβ D-incorporation (DsaD/E complex [1]): Neither of these substrates underwent deuteration

N[C@@H](Cc1c[nH]c2ccccc12)C(=O)O [Trp, tryptophan]
D-incorporation at Cα (DsaD/E complex [1]): underwent Cα-deuteration
D-incorporation at Cβ (DsaD/E complex [1]): no Cβ-deuteration

[2H]C([2H])(c1ccccc1)[C@]([2H])(N)C(=O)O [L-Phe-2,3,3-d3]
deuterium incorporation at Cα (DsaD/E complex [2]; [5]): 95%
deuterium incorporation at Cβ (DsaD/E complex [2]; [5]): 85%

B1: DsaE: small partner protein of aminotransferase DsaD, SEQ ID NO: 3, Streptomyces scopuliridis (protein, listed as Streptomyces scopuliridis)
chain: MTESSPTEVNEARVREYYRLVDADDVLGLVSLFAEDAVYRRPGYEPMRGHTGLTAFYTGERVIESGRHTVATVVARGDQVAVNGVFEGVLKDGRQVRLEFADFFLLNGERRFSRRDTYFFAPLV
modifications: DsaE
Km (DsaD/DsaE complex; 1 mM L-Ile, 3 μM DsaD, initial rate of Cβ-deuteration vs DsaE, read-out: KM for the formation of the active DsaD/DsaE complex): 40 ± 5 µM
DsaE concentration at plateau of Cβ-deuteration rate (DsaD/DsaE complex; 1 mM L-Ile, 3 μM DsaD, 100:1 ratio): around 0.3 mM
KM for association of DsaD and DsaE (DsaD/DsaE complex; as restated in conclusions): 40 µM

B2: DsaD/DsaE complex (Streptomyces scopuliridis) (protein)
chain: MGSSHHHHHHSSGLVPRGSHMASMTGGQQMGRGSEFMHIVTTPVARPLTAQERTERCAAPAFGTAFTEHMVSARWNPEQGWHDAELVPYGPLLLDPATVGLHYGQVVFEGLKAFRSHTGEVAVFRPDAHAERMRASARRLMMPEPPEELFLAAVDALVAQDQEWIPDDPGMSLYLRPILFASERTLALRPAREYRFLLVAFITEGYFGPAQRPVRVWVTDEYSRAAAGGTGAAKCAGNYAGSLLAQEEAQRKGCDQVVWLDPVERNWVEEMGGMNLFFVYEAGGSARLVTPPLTGSLLPGVTRDALLRLAPTLGVPVSEAPLSLEQWRADCASGAITEVFACGTAARISPVNEVSTKDGSWTIGAGAPAEGGVAAGEVTGRLSAALFGIQRGELPDSHSWMRPVSPARQSAIT
Km ([3]; other: 5 equiv. of DsaE (5:1 DsaE:DsaD)): 200 ± 10 µM
Km ([3]; other: 50 equiv. of DsaE (50:1 DsaE:DsaD)): 300 ± 90 µM
Km ([3]; other: one equivalent of DsaE, 3 μM DsaD): 2400 ± 680 µM
Km ([3]; other: with DsaE bound): 120 ± 20 µM
